From ChEMBL document CHEMBL1143006, “Examination of acylated 4-aminopiperidine-4-carboxylic acid residues in the phosphotyrosyl+1 position of Grb2 SH2 domain-binding tripeptides” (J Med Chem, 2007)

Target: Growth factor receptor-bound protein 2 (Homo sapiens, UniProt P62993)
Experiment: Binding affinity to Grb2-SH2 domain by surface plasmon resonance

Kd | SMILES
2180 nM | NC(=O)C[C@H](NC(=O)C1(NC(=O)[C@@H](CC(=O)O)Cc2ccc(CP(=O)(O)O)cc2)CCN(C(=O)CCCCc2ccccc2)CC1)C(=O)NCCCc1ccc2ccccc2c1
106 nM | COC(=O)N1CCC(NC(=O)[C@@H](CC(=O)O)Cc2ccc(CP(=O)(O)O)cc2)(C(=O)N[C@@H](CC(N)=O)C(=O)NCCCc2ccc3ccccc3c2)CC1
202 nM | COCCOC(=O)N1CCC(NC(=O)[C@@H](CC(=O)O)Cc2ccc(CP(=O)(O)O)cc2)(C(=O)N[C@@H](CC(N)=O)C(=O)NCCCc2ccc3ccccc3c2)CC1
272 nM | NC(=O)C[C@H](NC(=O)C1(NC(=O)[C@@H](CC(=O)O)Cc2ccc(CP(=O)(O)O)cc2)CCN(C(=O)NCCc2ccccc2)CC1)C(=O)NCCCc1ccc2ccccc2c1
871 nM | NC(=O)C[C@H](NC(=O)C1(NC(=O)[C@@H](CC(=O)O)Cc2ccc(CP(=O)(O)O)cc2)CCN(C(=O)OCc2ccc(C(=O)O)cc2)CC1)C(=O)NCCCc1ccc2ccccc2c1
320 nM | NC(=O)C[C@H](NC(=O)C1(NC(=O)[C@@H](CC(=O)O)Cc2ccc(CP(=O)(O)O)cc2)CCN(C(=O)OCc2ccccc2)CC1)C(=O)NCCCc1ccc2ccccc2c1
36 nM | NC(=O)C[C@H](NC(=O)C1(NC(=O)[C@@H](CC(=O)O)Cc2ccc(CP(=O)(O)O)cc2)CCN(C(=O)OCCc2ccccc2)CC1)C(=O)NCCCc1ccc2ccccc2c1
27 nM | NC(=O)C[C@H](NC(=O)C1(NC(=O)[C@@H](CC(=O)O)Cc2ccc(CP(=O)(O)O)cc2)CCN(C(=O)CCCc2ccccc2)CC1)C(=O)NCCCc1ccc2ccccc2c1
458 nM | Cc1ccc2c(ccn2CCC(=O)N2CCC(NC(=O)[C@@H](CC(=O)O)Cc3ccc(CP(=O)(O)O)cc3)(C(=O)N[C@@H](CC(N)=O)C(=O)NCCCc3ccc4ccccc4c3)CC2)c1
2140 nM | NC(=O)C[C@H](NC(=O)C1(NC(=O)[C@@H](CC(=O)O)Cc2ccc(CP(=O)(O)O)cc2)CCN(S(=O)(=O)CCc2ccccc2)CC1)C(=O)NCCCc1ccc2ccccc2c1
